Source: patent publication US20060116390A1, “Hepatitis c virus inhibitors” (priority 2003, published 2006)
Read-outs that look alike come from different tables or passages of the source.

Tested on: HCV proteins in Rep5.1 cells (replicon cell line)
Assay: Inhibitory activity of HCV: cell-based ELISA in replicon cell line Rep5.1 (decrease of HCV proteins)
Design: species or system hepatitis C virus
Details: Rep5.1 cells, 72 hours with drug
Method in brief: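 HCV protein loss was quantified by ELISA on methanol/acetone-fixed cells 72 h after drug addition, probing with selected HCV-positive human plasma, and IC50 was defined as 50% reduction relative to untreated wells. The cells were Rep5.1 replicon cells cultured in DMEM-10 with 500 μg/ml G418, plated at 5000 per well and dosed with serial dilutions after 4 h attachment.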

[1] = Hepatitis C virus, 72 h, concentration at which 50% of HCV proteins was decreased, Table 2, read-out: IC50
[2] = Hepatitis C virus, 72 h, decrease of HCV proteins measured by HCV antibody, Table 1, read-out: Level (IC50 values classified)
[3] = concentration at which 50% of HCV proteins was decreased, Table 2, read-out: IC50

Structure (SMILES)	IC50 [1] [µM]	IC50 [2] [µM]	IC50 [3] [µM]
CC1=C(C(=O)OCc2cccc(I)c2)CNC(=S)N1 [Compound 75, 6-methyl-2-thioxo-1,2,3,4-tetrahydro-pyrimidine-5-carboxylic acid 3-iodo-benzyl ester]	< 0.5	< 1	
COc1ccc(CCCOC(=O)C2=C(C)NC(=S)NC2)cc1OC [Compound 36, 6-methyl-2-thioxo-1,2,3,4-tetrahydro-pyrimidine-5-carboxylic acid 3-(3,4-dimethoxy-phenyl)-propyl ester]	84	> 20	
COc1ccc(CCCOC(=O)C2=C(C)NC(=S)NC2CF)cc1 (centres unmarked) [43′, 4-fluoromethyl-6-methyl-2-thioxo-1,2,3,4-tetrahydro-pyrimidine-5-carboxylic acid 3-(4-methoxy-phenyl)-propyl ester]	1.8	1 to 10	
CCOc1ccccc1COC(=O)C1=C(C)NC(=S)NC1CF (centres unmarked) [Compound 263, 4-fluoromethyl-6-methyl-2-thioxo-1,2,3,4-tetrahydro-pyrimidine-5-carboxylic acid 2-ethoxy-benzyl ester]	1.7	< 1	
CC1=C(C(=O)OCCc2ccsc2)C(c2cnc[nH]2)NC(=S)N1 (centres unmarked) [50′, 4-(3H-imidazol-4-yl)-6-methyl-2-thioxo-1,2,3,4-tetrahydro-pyrimidine-5-carboxylic acid 2-thiophen-3-yl-ethyl ester]	> 100	> 20	
CC1=C(C(=O)OCCc2ccsc2)C(CCl)NC(=S)N1 (centres unmarked) [76′, 4-chloromethyl-6-methyl-2-thioxo-1,2,3,4-tetrahydro-pyrimidine-5-carboxylic acid 2-thiophen-3-yl-ethyl ester]	62	> 20	
CC1=C(C(=O)OCCCc2ccsc2)C(CO)NC(=S)N1 (centres unmarked) [6″, 4-hydroxymethyl-6-methyl-2-thioxo-1,2,3,4-tetrahydro-pyrimidine-5-carboxylic acid 3-thiophen-3-yl-propyl ester]	1.9	1 to 10	
CC1=C(C(=O)OCCc2nc3ccccc3o2)CNC(=S)N1 [Compound 265, 6-methyl-2-thioxo-1,2,3,4-tetrahydro-pyrimidine-5-carboxylic acid 2-benzoxazol-2-yl-ethyl ester]	6	1 to 10	
CCCCc1ccc(COC(=O)C2=C(C)NC(=S)NC2)cc1 [Compound 51, 6-methyl-2-thioxo-1,2,3,4-tetrahydro-pyrimidine-5-carboxylic acid 4-butyl-benzyl ester]	< 0.5	< 1	
CCCN(c1ccc(CCOC(=O)C2=C(C)NC(=S)NC2CO)cc1[N+](=O)[O-])C1CC1 (centres unmarked) [95″, 4-Hydroxymethyl-6-methyl-2-thioxo-1,2,3,4-tetrahydro-pyrimidine-5-carboxylic acid 2-[4-(cyclopropyl-propyl-amino)-3-nitro-phenyl]-ethyl ester]	0.6	< 1	
CC1=C(C(=O)OCCCc2cccs2)C(CF)NC(=S)N1 (centres unmarked) [10′, 4-fluoromethyl-6-methyl-2-thioxo-1,2,3,4-tetrahydro-pyrimidine-5-carboxylic acid 3-thiophen-2-yl-propyl ester]	1.2	1 to 10	
CC1=C(C(=O)OCc2ccc(-c3cnc(C)s3)s2)CNC(=S)N1 [Compound 221, 6-methyl-2-thioxo-1,2,3,4-tetrahydro-pyrimidine-5-carboxylic acid 5-(2-methyl-thiazol-5-yl)-thiophen-2-ylmethyl ester]	2.5	1 to 10	
CC1=C(C(=O)OCc2ccccc2)C(CF)NC(=S)N1 (centres unmarked) [Compound 211, 4-fluoromethyl-6-methyl-2-thioxo-1,2,3,4-tetrahydro-pyrimidine-5-carboxylic acid benzyl ester]	16	10 to 20	
CC1=C(C(=O)OCc2ccc(C(C)(C)C)cc2)CNC(=S)N1 [Compound 45, 6-methyl-2-thioxo-1,2,3,4-tetrahydro-pyrimidine-5-carboxylic acid 4-t-butyl-benzyl ester]	< 0.4	< 1	
CC1=C(C(=O)OCCc2ccc(F)cc2Cl)C(CO)NC(=S)N1 (centres unmarked) [58″, 4-hydroxymethyl-6-methyl-2-thioxo-1,2,3,4-tetrahydro-pyrimidine-5-carboxylic acid 2-(2-chloro-4-fluoro-phenyl)-ethyl ester]	1.8	1 to 10	
CC1=C(C(=O)OCc2ccccc2C)CNC(=S)N1 [Compound 231, 6-methyl-2-thioxo-1,2,3,4-tetrahydro-pyrimidine-5-carboxylic acid 2-methyl-benzyl ester]	0.7	< 1	
CC1=C(C(=O)OCCc2ccsc2)C2(CC2)NC(=S)N1 [13′, 7-methyl-5-thioxo-4,6-diaza-spiro[2.5]oct-7-ene-8-airboxylic acid 2-thiophen-3-yl-ethyl ester]			79

Structure (SMILES)	IC50 [1] [µM]	IC50 [2] [µM]	IC50 [3] [µM]
CC1=C(C(=O)OCc2cccc([N+](=O)[O-])c2)CNC(=S)N1 [Compound 77, 6-methyl-2-thioxo-1,2,3,4-tetrahydro-pyrimidine-5-carboxylic acid 3-nitro-benzyl ester]	2.3	1 to 10	
CC1=C(C(=O)OCc2ccc([N+](=O)[O-])c(C)c2)CNC(=S)N1 [Compound 135, 6-methyl-2-thioxo-1,2,3,4-tetrahydro-pyrimidine-5-carboxylic acid 3-methyl-4-nitro-benzyl ester]	0.9	< 1	
CCOC(=O)COC(=O)OCC1NC(=S)NC(C)=C1C(=O)OCCc1cccc([N+](=O)[O-])c1 (centres unmarked) [83″, 4-ethoxycarbonylmethoxycarbonyloxymethyl-6-methyl-2-thioxo-1,2,3,4-tetrahydro-pyrimidine-5-carboxylic acid 2-(3-nitro-phenyl)-ethyl ester]	6.1	1 to 10	
CC1=C(C(=O)OCCc2ccc(F)c(F)c2)C(CO)NC(=S)N1 (centres unmarked) [68″, 4-hydroxymethyl-6-methyl-2-thioxo-1,2,3,4-tetrahydro-pyrimidine-5-carboxylic acid 2-(3,4-difluoro-phenyl)-ethyl ester]	2.7	1 to 10	
CC1=C(C(=O)OCCc2ccoc2)CNC(=S)N1 [Compound 254, 6-methyl-2-thioxo-1,2,3,4-tetrahydro-pyrimidine-5-carboxylic acid 2-furan-3-yl-ethyl ester]	3	1 to 10	
COc1ccc(CCCOC(=O)C2=C(C)NC(=S)NC2)cc1 [Compound 88, 6-methyl-2-thioxo-1,2,3,4-tetrahydro-pyrimidine-5-carboxylic acid 3-(4-methoxy-phenyl)-propyl ester]	0.7	< 1	
CC1=C(C(=O)OCCc2c(F)cccc2Cl)C(CF)NC(=S)N1 (centres unmarked) [87′, 4-fluoromethyl-6-methyl-2-thioxo-1,2,3,4-tetrahydro-pyrimidine-5-carboxylic acid 2-(2-chloro-6-fluoro-phenyl)-ethyl ester]	< 0.4	< 1	
CC1=C(C(=O)OCC#Cc2ccccc2)C(CO)NC(=S)N1 (centres unmarked) [40″, 4-hydroxymethyl-6-methyl-2-thioxo-1,2,3,4-tetrahydro-pyrimidine-5-carboxylic acid 3-phenyl-prop-2-inyl ester]			> 100
CC1=C(C(=O)OCCCCSc2nc3ccccc3s2)C(CF)NC(=S)N1 (centres unmarked) [55′, 4-fluoromethyl-6-methyl-2-thioxo-1,2,3,4-tetrahydro-pyrimidine-5-carboxylic acid 4-(benzothiazol-2-ylsulfanyl)-butyl ester]	1.6	1 to 10	
CC1=C(C(=O)OCc2ccccc2)CNC(=S)N1 [Compound 6, 6-methyl-2-thioxo-1,2,3,4-tetrahydro-pyrimidine-5-carboxylic acid benzyl ester]	1	< 1	
CC1=C(C(=O)OCCc2cccc([N+](=O)[O-])c2)C(CO)NC(=S)N1 (centres unmarked) [32″, 4-hydroxymethyl-6-methyl-2-thioxo-1,2,3,4-tetrahydro-pyrimidine-5-carboxylic acid 2-(3-nitro-phenyl)-ethyl ester]	6	1 to 10	
CC1=C(C(=O)OCc2cc(Cl)ccc2[N+](=O)[O-])CNC(=S)N1 [Compound 143, 6-methyl-2-thioxo-1,2,3,4-tetrahydro-pyrimidine-5-carboxylic acid 5-chloro-2-nitro-benzyl ester]	0.4	< 1	
CC1=C(C(=O)OCCOc2ccccc2)CNC(=S)N1 [Compound 163, 6-methyl-2-thioxo-1,2,3,4-tetrahydro-pyrimidine-5-carboxylic acid 2-phenoxy-ethyl ester]	2.5	1 to 10	
COc1ccc(C2(COC(=O)C3=C(C)NC(=S)NC3CF)CCCC2)cc1 (centres unmarked) [64′, 4-fluoromethyl-6-methyl-2-thioxo-1,2,3,4-tetrahydro-pyrimidine-5-carboxylic acid 1-(4-methoxy-phenyl)-cyclopentylmethyl ester]	3	1 to 10	
COCC1=C(C(=O)OCc2ccccc2)CNC(=S)N1 [Compound 64, 6-methoxymethyl-2-thioxo-1,2,3,4-tetrahydro-pyrimidine-5-carboxylic acid benzyl ester]	15	10 to 20	
CC(=O)SCCOC(=O)OCC1NC(=S)NC(C)=C1C(=O)OCCc1cccc([N+](=O)[O-])c1 (centres unmarked) [79″, 4-(2-acetylsulfanyl-ethoxycarbonyloxymethyl)-6-methyl-2-thioxo-1,2,3,4-tetrahydro-pyrimidine-5-carboxylic acid 2-(3-nitro-phenyl)-ethyl ester]	6.2	1 to 10	
CC1=C(C(=O)OCC#CCOCc2ccccc2)CNC(=S)N1 [Compound 214, 6-methyl-2-thioxo-1,2,3,4-tetrahydro-pyrimidine-5-carboxylic acid 4-benzyloxy-but-2-inyl ester]			< 0.4
